Converted amounts (≈) assume the structure as drawn.
Legend:
[1] = test system: HeLa cell line; set-up: method as in PMID 25897586; conditions: IC30 = 30% or greater destruction of cells; cited from earlier work
[2] = test system: S. aureus ATCC 6538; set-up: method as in PMID 25897586; conditions: S. a. ATCC 6538; compounds 1–5; cited from earlier work
[3] = test system: B. cereus ATCC 10876; set-up: method as in PMID 25897586; conditions: B. c. ATCC 10876; compounds 1–5; cited from earlier work
[4] = test system: HeLa cell line; assay: Cytotoxicity (earlier study); assay type: cell-based; conditions: HeLa IC30 / MIC S. aureus ATCC 25923
Text: (§1) For the compound with the best solubility (2), its cytotoxicity against L929 and HeLa cells was presented previously. The cytotoxicity was expressed as rigorous IC30 values, defined as the highest dilutions of test samples that cause 30% or greater destruction of cells.

[5] = test system: L929 cell line; assay: Cytotoxicity (earlier study); assay type: cell-based; conditions: L929 IC30 / MIC S. aureus ATCC 25923
Text: as §1

[6] = test system: S. aureus ATCC 25923; set-up: method as in PMID 25897586; conditions: S. a. ATCC 25923; compounds 1–5; cited from earlier work
[7] = test system: MSSA-3; assay: MIC, clinical isolate of S. aureus; assay type: cell-based; conditions: Staphylococcus aureus; clinical isolate MSSA-3; read-out: MIC
In short: (§2)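 Thiosemicarbazides were tested against a Gram-positive panel of ATCC reference strains and against clinical S. aureus isolates from a university hospital collection. Amoxicillin, gentamicin, levofloxacin, linezolid and vancomycin were run alongside as reference antibiotics.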

[8] = test system: MRSA-1; assay: MIC, clinical isolate of S. aureus; assay type: cell-based; conditions: Staphylococcus aureus; clinical isolate MRSA-1; read-out: MIC
In short: as §2

[9] = test system: MSSA-2; assay: MIC, clinical isolate of S. aureus; assay type: cell-based; conditions: Staphylococcus aureus; clinical isolate MSSA-2; read-out: MIC
In short: as §2

[10] = test system: MSSA-1; assay: MIC, clinical isolate of S. aureus; assay type: cell-based; conditions: Staphylococcus aureus; clinical isolate MSSA-1; read-out: MIC
In short: as §2

[11] = test system: MSSA-4; assay: MIC, clinical isolate of S. aureus; assay type: cell-based; conditions: Staphylococcus aureus; clinical isolate MSSA-4; read-out: MIC
In short: as §2

[12] = test system: human foreskin fibroblast Hs27 cells (CRL-1634); assay: MTT cytotoxicity assay; assay type: cell-based; conditions: Homo sapiens, 24 h of treatment
[13] = MTT cytotoxicity assay; assay type: cell-based, human; conditions: human, Hs27 foreskin fibroblast cells (ATCC CRL-1634), 25 µg/mL, 24 h, vehicle control = 100%
[14] = test system: S. aureus ATCC 25923; assay: Checkerboard broth dilution synergy assay; assay type: cell-based
In short: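 Checkerboard broth microdilution against S. aureus ATCC 25923 paired each thiosemicarbazide with amoxicillin, gentamicin, levofloxacin, linezolid or vancomycin. FICI is the sum of each drug's MIC in combination divided by its MIC alone: ≤0.5 synergy, 0.5–1 additive, 1–4 indifferent, ≥4 antagonism.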

[15] = test system: L929 cell line; set-up: method as in PMID 25897586; conditions: IC30 = 30% or greater destruction of cells; cited from earlier work
[16] = test system: S. epidermidis ATCC 12228; set-up: method as in PMID 25897586; conditions: S. e. ATCC 12228; compounds 1–5; cited from earlier work
[17] = test system: B. subtilis ATCC 6633; set-up: method as in PMID 25897586; conditions: B. s. ATCC 6633; compounds 1–5; cited from earlier work
[18] = test system: M. luteus ATCC 10240; set-up: method as in PMID 25897586; conditions: M. l. ATCC 10240; compounds 1–5; cited from earlier work

In the case of `Cc1cccc(C(=O)NC(=S)NNC(=O)c2cccc(Cl)c2Cl)c1` [compound 2], the IC30 [1] is listed as 30.97 µg/mL (≈ 81 µM), the MIC [2] is listed as 7.81 µg/mL (≈ 20.4 µM) and the MIC [3] is listed as 1.95 µg/mL (≈ 5.1 µM). The “selectivity index SI (SI = IC30/MIC)” value [4] was 3.97, the “selectivity index SI (SI = IC30/MIC)” value [5] was 3.94 and the MIC [6] was 7.81 µg/mL (≈ 20.4 µM). It also gave an MIC [7] of over 500 µg/mL, an MIC [8] of 500 µg/mL (≈ 1310 µM) and an MIC [9] of over 500 µg/mL. It also gave an MIC [10] of over 500 µg/mL, an MIC [11] of 500 µg/mL (≈ 1310 µM) and an IC50 [12] of over 25 µg/mL. The viability at 24 h, 25 µg/mL [13] was 76.7%, the “interaction in combination” value ([14]; combination with amoxicillin) was “additive” and the “interaction in combination” value ([14]; combination with gentamicin) was “no interactions”. The “interaction in combination” value ([14]; combination with levofloxacin) was “no interactions”, the “interaction in combination” value ([14]; combination with linezolid) was “synergistic” and the “interaction in combination” value ([14]; combination with vancomycin) was “no interactions”. The IC30 [15] was 30.78 µg/mL (≈ 80.5 µM), the MIC [16] was 3.91 µg/mL (≈ 10.2 µM) and the MIC [17] was 0.49 µg/mL (≈ 1.28 µM). The MIC [18] was 0.98 µg/mL (≈ 2.56 µM).
